Experimental data from ChEMBL document CHEMBL3867475, “Discovery of furo[2,3-d][1,3]thiazinamines as beta amyloid cleaving enzyme-1 (BACE1) inhibitors” (Bioorg Med Chem Lett, 2016).

Assays:
[1] = Chemical stability of compound in aqueous condition at pH 1 to 10 at 40 degC measured up to 24 hrs; assay type: physicochemical; settings: buffer, pH 1, 24 h
[2] = Permeability from basolateral side to apical side in human Caco2 cells; assay type: ADME, cell-based; settings: Caco-2, read-out: permeability
[3] = Permeability from apical side to basolateral side in human Caco2 cells; assay type: ADME, cell-based; settings: Caco-2, read-out: permeability

**Q.** For `NC1=N[C@@]2(c3cc(NC(=O)c4ncccc4F)ccc3F)OCC[C@H]2CS1`, which Stability [1] is on record?
**A.** Stable

**Q.** Which results are given for `NC1=N[C@@]2(c3cc(NC(=O)c4ccc(Cl)cn4)ccc3F)OCC[C@H]2CS1`?
**A.** Stability [1]: Stable; Papp B→A [2]: 24.4 ×10⁻⁶ cm/s; Papp A→B [3]: 17.7 ×10⁻⁶ cm/s

**Q.** For `NC1=N[C@@]2(c3cc(NC(=O)c4ccccn4)ccc3F)OCC[C@H]2CS1`, which Stability [1] is on record?
**A.** Stable

**Q.** With `NC1=N[C@@]2(c3cc(NC(=O)c4ncc(Cl)cc4Cl)ccc3F)OCC[C@H]2CS1` as the molecule, how does the Stability [1] read?
**A.** Stable

**Q.** Which Stability [1] does the source give for `NC1=N[C@@]2(c3cc(NC(=O)c4ccc(OC(F)F)cn4)ccc3F)OCC[C@H]2CS1` here?
**A.** Stable

**Q.** Which Stability [1] does the source give for `NC1=N[C@@]2(c3cc(NC(=O)c4ccc(Br)cn4)ccc3F)OCC[C@H]2CS1` here?
**A.** Stable

**Q.** With `NC1=N[C@@]2(c3cc(NC(=O)c4ccc(F)cn4)ccc3F)OCC[C@H]2CS1` as the molecule, how does the Stability [1] read?
**A.** Stable

**Q.** What does the source list for `N#Cc1ccc(C(=O)Nc2ccc(F)c([C@@]34N=C(N)SC[C@@H]3CCO4)c2)nc1`?
**A.** Stability [1]: Stable; Papp B→A [2]: 54.2 ×10⁻⁶ cm/s; Papp A→B [3]: 16.4 ×10⁻⁶ cm/s

**Q.** With `COc1cnc(C(=O)Nc2ccc(F)c([C@@]34N=C(N)SC[C@@H]3CCO4)c2)cn1` as the molecule, how does the Stability [1] read?
**A.** Stable
